The record followed here is patent US6759390B2, “Compounds and their uses” (priority 2000, dated 2004).

Assay [1] concerns lipogenesis. Kind of assay: basal lipogenesis stimulation. It is filed as cell-based. The following applies: FIG. 2. The text has this:
(§1) Methods for obtaining A-type and P-type mediators are set out in Caro et al, 1997, and in WO98/11116 and WO98/11117. Protocols for determining characteristic IPG biological activities such as PDH activation, PKA inhibition, acetylCoA activation, fructose-1,6-bis-phosphatase activity and lipogenesis are well known in the art, e.g. as described in Caro et al^[14].
(§2) The compounds of the invention can be tested for one or more the characteristic IPG-P and/or IPG-A activities mentioned above to determine whether they will be suitable for use a IPG mimetics or antagonists. Preferred assays measure the effect of the compounds on PDH phosphatase, PKA or lipogenesis. Protocols for these assays are provided in Caro et al^[14].

Assay [2] deals with lipogenesis. In words: glucose stimulated lipogenesis stimulation. The note with it: FIG. 3. It is filed as cell-based.
From the text: as §1, §2

The test system of the next assay is PDH phosphatase. In words: PDH phosphatase activation. In kind it is biochemical. The following applies: 100 μM.
From the text: as §1, §2

The subject of the next assay is PKA. In words: PKA inhibition. It is filed as biochemical.
From the text: as §1, §2

For the compound `N[C@H]1[C@@H](O[C@H]2[C@H](O)[C@H](O)[C@H](O)[C@@H](O)[C@@H]2O)O[C@H](COP(=O)(O)O)[C@@H](O)[C@@H]1O` [RGL1023, O-(2′-amino-2′-deoxy-6′-phosphate-D-glucopyranosyl)-α(1,6)-D-myo-inositol], in the assay on lipogenesis [1], the “effect on basal lipogenesis” value is “stimulate lipogenesis”. Also, the “effect on glucose stimulated lipogenesis” value in the assay on lipogenesis [2] is reported as “stimulate lipogenesis”. In addition, in the assay on PDH phosphatase, the PDH activation stood at 14%.

The compound `NC1C(OC2C(O)C(O)C(O)C(O)C2OP(=O)(O)O)OC(CO)C(O)C1O` [RGL1115, 1′-D-6-O-(2′-amino-2′-deoxy-α-D-glucanopyranosyl)-5-O-phosphate-myo-inositol] gave a PDH activation with PDH phosphatase of 18%.

For the compound `NC1C(OC2C(O)C(O)C(O)C(O)C2O)OC(CO)C(OP(=O)(O)O)C1O` [RGL1027, O-(2′-amino-2′-deoxy-4′-phosphate-D-glucopyranosyl)-α(1,6)-D-myo-inositol], the PKA inhibition was found to be 18% in the assay with PKA (0.1 μM) and 10% with PKA (10 μM). Moreover, the “effect on basal lipogenesis” value with lipogenesis [1] was “inhibits lipogenesis”. Also, in the assay on lipogenesis [2], the “effect on glucose stimulated lipogenesis” value was “inhibits lipogenesis”. The same compound displayed a PDH activation in the assay on PDH phosphatase of 132%.

Consider `NC1C(OC2C(O)C(O)C(O)C(O)C2O)OC(CO)C(O)C1OP(=O)(O)O` [RGL1029, O-(2′-amino-2′-deoxy-3′-phosphate-D-glucopyranosyl)-α(1,6)-D-myo-inositol], for which the PKA inhibition in the assay on PKA (0.1 μM) is given as 59%; in the assay on PKA (10 μM), 33%. For the same compound, the “effect on basal lipogenesis” value in the assay with lipogenesis [1] was “stimulate lipogenesis”. Further, in the assay on lipogenesis [2], the “effect on glucose stimulated lipogenesis” value is “stimulate lipogenesis”. In the assay on PDH phosphatase, the PDH activation stood at 361%.
